Measured values published in patent US9682082B2, “Combinations of AKT and MEK inhibitor compounds, and methods of use” (GENENTECH, INC., priority 2011, dated 2017).

Assays:
[1] = tested on: A2058 (PTEN null/Braf mutant) melanoma model; experiment: A2058 melanoma xenograft model, tumor growth inhibition; assay type: in vivo
Description: Methods of measuring TGI are known in the art. In one example method, average tumor volumes are determined and compared from the patient before and after treatment. Tumor volumes can be measured in two dimensions (length and width) using any method in the art, for example UltraCal IV calipers (Fred V. Fowler Company) or by PET (positron emission tomography), or by some other method. The formula tumor volume (mm^3)=(length×width^2)×0.5 can be used. Measuring tumor volumes over multiple time periods can be done using a mixed-modeling Linear Mixed Effects (LME) approach (Pinheiro et al. 2009). This approach can address both repeated measurements (and multiple patients). Cubic regression splines can be used to fit a non-linear profile to the time courses of tumor volume at each dose level. These non-linear profiles can then be related to dose within the mixed model. Tumor growth inhibition as a percent of vehicle can be calculated as a percent area under the fitted curve (AUC) per day in relation to the vehicle, using the following formula:
[formula] Using this formula, a TGI value of 100% indicates tumor stasis, greater than about 1% but less than about 100% indicates tumor growth inhibition, and greater than about 100% indicates tumor regression. Preparation of a Compound of Formula I
The efficacy of representative combinations of the invention were measured in vivo by implanting allografts or xenografts of cancer cells in rodents and treating the tumor-bearing animals with the combinations. Variable results are to be expected depending on the cell line, the presence or absence of certain mutations in the tumor cells, the sequence of administration the compounds, dosing regimen, and other factors. Subject mice were treated with drug(s) or control (Vehicle) and monitored over several weeks or more to measure the time to tumor doubling, log cell kill, and tumor inhibition.

MALME3M cells = experiment: Cell viability assay (CellTiter-Glo), MALME3M; assay type: cell-based, human; details: MALME3M B-RAF V600E metastatic melanoma cell line
Description: (§1) Cells were plated in black, clear-bottomed 384-well plates (Catalog 353962; Becton Dickinson; Franklin Lakes, N.J.) at a density of 1500 cells/well and incubated overnight to 1.5 days at 37° C., 5% CO2. Serial dilutions of GDC-0068, GDC-0973, or both in combination were then added to the cells and incubated for another 96 hours. Cell viability was determined by measuring the cellular adenosine triphosphate (ATP) levels as described in the manufacturer's protocol (CellTiter-Glo Luminescent Cell Viability Assay kit; Catalog G7573; Promega, Madison, Wis.). Luminescence signal was recorded on an EnVision 2101 Multilabel Reader (PerkinElmer; Waltham, Mass.).
(§2) Percentage inhibition was calculated by dividing the relative light unit (RLU) of cells exposed to the GDC-0068 and GCD-0973 combination to the RLU of cells exposed to DMSO and subtracting it from 1, as expressed below: % inhibition=1−(RLUcombination/RLUDMSO)
(§3) BLISS analysis compared the expected % inhibition (E=EGDC-0068+EGDC-0973−EGDC-0068×EGDC-0973) with the experimentally observed % inhibition, EOBS. The BLISS score is the difference (ΔE=EOBS−E) between the expected % inhibition, E, and the experimentally observed inhibition, EOBS.

MALME3 cells = experiment: Cell viability assay (CellTiter-Glo), MALME3; assay type: cell-based, human; details: MALME3 normal skin fibroblasts
Description: as §1, §2, §3

| SMILES | single agent tumor growth inhibition (TGI) ([1]; 50 mg/kg of GDC-0068) | single agent tumor growth inhibition (TGI) ([1]; higher doses of GDC-0068 (75 and 100 mg/kg)) | single agent effect on cell viability (MALME3M cells) | single agent effect on cell viability (MALME3 cells) | single agent tumor growth inhibition (TGI) ([1]; all doses of GDC-0973) |
| --- | --- | --- | --- | --- | --- |
| CC(C)NC[C@@H](C(=O)N1CCN(c2ncnc3c2[C@H](C)C[C@H]3O)CC1)c1ccc(Cl)cc1 [GDC-0068, (S)-2-(4-chlorophenyl)-1-(4-((5R,7R)-7-hydroxy-5-methyl-6,7-dihydro-5H-cyclopenta[d]pyrimidin-4-yl)piperazin-1-yl)-3-(isopropylamino)propan-1-one] | No TGI | Comparable single agent tumor growth inhibition (TGI) | lack of single agent activity | – | – |
| O=C(c1ccc(F)c(F)c1Nc1ccc(I)cc1F)N1CC(O)([C@@H]2CCCCN2)C1 [GDC-0973, (S)-(3,4-difluoro-2-(2-fluoro-4-iodophenylamino)phenyl)(3-hydroxy-3-(piperidin-2-yl)azetidin-1-yl)methanone] | – | – | sensitivity | resistant | Comparable single agent tumor growth inhibition (TGI) |
